Measurements from patent US20250145585A1, “HETEROCYCLIC INHIBITORS OF IGF-1R FOR TREATMENT OF DISEASE” (HORIZON THERAPEUTICS IRELAND DAC, priority 2023, published 2025).

Target: T1, IGF-1R (Homo sapiens, UniProt P08069)
T1 construct: expressed in transfected cells
Assay: Example B-2: IGF-1R Assay (PathHunter cell lines, EC80 agonist challenge, chemiluminescent detection)
Assay type: cell-based
Details: PathHunter cells, compound 60 minutes at 37° C., EC80 agonist 3 hours; read-out: IC50, Biological Activity against IGF-1R (Table B2)
In short: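 Read-out is PathHunter chemiluminescence, developed for 1 h at room temperature after a 3 h room-temperature EC80 agonist challenge that followed 60 min compound pre-treatment at 37° C (1% vehicle). IC50 comes from % inhibition normalized to EC80 and vehicle controls.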

T1 sequence (P08069 31-1367): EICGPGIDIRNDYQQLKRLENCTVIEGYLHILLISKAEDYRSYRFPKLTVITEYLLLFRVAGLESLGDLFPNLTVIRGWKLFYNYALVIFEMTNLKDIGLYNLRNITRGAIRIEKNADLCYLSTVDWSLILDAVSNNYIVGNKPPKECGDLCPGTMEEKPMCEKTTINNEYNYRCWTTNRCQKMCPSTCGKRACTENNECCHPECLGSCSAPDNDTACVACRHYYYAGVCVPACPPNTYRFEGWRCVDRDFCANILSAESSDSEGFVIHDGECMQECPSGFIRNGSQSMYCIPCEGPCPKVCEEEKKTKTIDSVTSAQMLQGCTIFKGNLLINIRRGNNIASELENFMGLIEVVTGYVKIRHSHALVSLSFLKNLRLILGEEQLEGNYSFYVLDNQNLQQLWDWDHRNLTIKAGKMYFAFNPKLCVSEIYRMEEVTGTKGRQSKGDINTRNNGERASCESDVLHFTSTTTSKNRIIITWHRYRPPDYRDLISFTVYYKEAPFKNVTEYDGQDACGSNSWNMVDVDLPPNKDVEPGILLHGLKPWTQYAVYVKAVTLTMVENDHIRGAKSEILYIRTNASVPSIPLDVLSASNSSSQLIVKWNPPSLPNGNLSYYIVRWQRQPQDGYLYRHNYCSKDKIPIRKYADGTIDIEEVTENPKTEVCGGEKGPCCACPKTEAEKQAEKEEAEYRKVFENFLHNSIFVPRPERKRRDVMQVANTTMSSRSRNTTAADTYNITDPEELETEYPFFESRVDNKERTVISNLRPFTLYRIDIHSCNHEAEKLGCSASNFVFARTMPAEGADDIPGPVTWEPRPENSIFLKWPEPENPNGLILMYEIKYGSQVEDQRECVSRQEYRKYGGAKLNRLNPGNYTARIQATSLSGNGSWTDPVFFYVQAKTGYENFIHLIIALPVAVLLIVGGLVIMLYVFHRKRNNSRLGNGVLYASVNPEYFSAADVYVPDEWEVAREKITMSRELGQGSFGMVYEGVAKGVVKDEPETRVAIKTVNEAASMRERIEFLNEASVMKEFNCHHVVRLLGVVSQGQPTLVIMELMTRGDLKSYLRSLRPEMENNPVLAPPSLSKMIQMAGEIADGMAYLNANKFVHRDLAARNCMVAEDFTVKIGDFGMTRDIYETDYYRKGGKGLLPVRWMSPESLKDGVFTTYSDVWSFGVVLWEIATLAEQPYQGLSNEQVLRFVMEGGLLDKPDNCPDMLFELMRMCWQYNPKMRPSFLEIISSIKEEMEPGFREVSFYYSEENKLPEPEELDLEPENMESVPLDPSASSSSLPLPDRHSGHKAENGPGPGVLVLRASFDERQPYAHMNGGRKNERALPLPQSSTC

Compound | IC50 [nM]
CC(C)Nc1cc(CN2C(=O)N(c3ccc(S(=O)(=O)C4CC4)cc3)C(=O)C2(C)C)ccn1 [Compound 353, 3-(4-(cyclopropylsulfonyl)phenyl)-1-((2-(isopropylamino)pyridin-4-yl)methyl)-5,5-dimethylimidazolidine-2,4-dione] | 500 to 2000
CC1(C)C(=O)N(c2ccc(C3(C#N)CCC3)cc2)C(=O)N1Cc1ccnc2c1CC(=O)N2 [Compound 40, (1-(4-(4,4-dimethyl-2.5-dioxo-3-((2-oxo-2,3-dihydro-1H-pyrrolo[2,3-b]pyridin-4-yl)methyl)imidazolidin-1-yl)phenyl)cyclobutane-1-carbonitrile)] | ≤ 500
CC1(C)Cc2ccc(N3C(=O)N(Cc4ccnc(N[C@H]5[C@@H]6COC[C@@H]65)c4)C(C)(C)C3=O)cc2O1 [Compound 249, 1-((2-(((1R,5S,6r)-3-oxabicyclo[3.1.0]hexan-6-yl)amino)pyridin-4-yl)methyl)-3-(2,2-dimethyl-2,3-dihydrobenzofuran-6-yl)-5,5-dimethylimidazolidine-2,4-dione] | ≤ 500
CC1(C)C(=O)N(c2ccc3c(c2)N(S(C)(=O)=O)CC32CC2)C(=O)N1Cc1ccnc(N[C@H]2CCOC2)c1 [Compound 223, (S)-5,5-dimethyl-3-(1′-(methylsulfonyl)spiro[cyclopropane-1,3′-indolin]-6′-yl)-1-((2-((tetrahydrofuran-3-yl)amino)pyridin-4-yl)methyl)imidazolidine-2,4-dione] | ≤ 500
CN1CC(C)(C)c2ccc(N3C(=O)N(Cc4ccnc(N[C@H]5[C@@H]6COC[C@@H]65)c4)C(C)(C)C3=O)cc21 [Compound 218, 1-((2-(((1R,5S,6r)-3-oxabicyclo[3.1.0]hexan-6-yl)amino)pyridin-4-yl)methyl)-5,5-dimethyl-3-(1,3,3-trimethylindolin-6-yl)imidazolidine-2,4-dione] | ≤ 500
CC1(C)C(=O)N(c2ccc(C3(C(F)(F)F)CC3)cc2)C(=O)N1Cc1ccnc(NCc2ncccn2)c1 [Compound 177, 5,5-dimethyl-1-((2-((pyrimidin-2-ylmethyl)amino)pyridin-4-yl)methyl)-3-(4-(1-(trifluoromethyl)cyclopropyl)phenyl) imidazolidine-2,4-dione] | ≤ 500
CC(Nc1cc(CN2C(=O)N(c3ccc4c(c3)N(S(C)(=O)=O)CC43CCC3)C(=O)C2(C)C)ccn1)C1CCOC1 (stereo not drawn) [Compound 225, 5,5-dimethyl-3-(1′-(methylsulfonyl)spiro[cyclobutane-1,3′-indolin]-6′-yl)-1-((2-((1-(tetrahydrofuran-3-yl)ethyl)amino)pyridin-4-yl)methyl)imidazolidine-2,4-dione] | ≤ 500
COC[C@@H](C)Nc1cc(CN2C(=O)N(c3ccc(C(C)(C)C#N)cc3)C(=O)C2(C)C)ccn1 [Compound 150, (R)-2-(4-(3-((2-((1-methoxypropan-2-yl)amino)pyridin-4-yl)methyl)-4,4-dimethyl-2,5-dioxoimidazolidin-1-yl)phenyl)-2-methylpropanenitrile] | ≤ 500
CC1(C)C(=O)N(c2ccc(C3(C(F)(F)F)CC3)cc2)C(=O)N1Cc1ccnc(NC2CCc3cn[nH]c3C2)c1 (stereo not drawn) [Compound 161, 5,5-dimethyl-1-((2-((4,5,6,7-tetrahydro-1H-indazol-6-yl)amino)pyridin-4-yl)methyl)-3-(4-(1-(trifluoromethyl)cyclopropyl)phenyl) imidazolidine-2,4-dione] | ≤ 500
CC1(C)COc2cc(N3C(=O)N(Cc4ccnc(NC5CCOCC5)c4)C(C)(C)C3=O)ccc21 [Compound 199, 3-(3,3-dimethyl-2,3-dihydrobenzofuran-6-yl)-5,5-dimethyl-1-((2-((tetrahydro-2H-pyran-4-yl)amino)pyridin-4-yl)methyl)imidazolidine-2,4-dione] | ≤ 500
C[C@@H]1COc2c(CN3C(=O)N(c4ccc(S(=O)(=O)C(F)(F)F)cc4)C(=O)C3(C)C)ccnc2N1 [Compound 60, (R)-5,5-dimethyl-1-((3-methyl-3,4-dihydro-2H-pyrido[3,2-b][1,4]oxazin-8-yl)methyl)-3-(4-((trifluoromethyl)sulfonyl)phenyl) imidazolidine-2,4-dione] | ≤ 500
C[C@@H](Nc1cc(CN2C(=O)N(c3ccc(S(=O)(=O)C(F)(F)F)cc3)C(=O)C2(C)C)ccn1)[C@@H]1CCCO1 [Compound 341, 5,5-dimethyl-1-((2-(((R)-1-((S)-tetrahydrofuran-2-yl)ethyl)amino)pyridin-4-yl)methyl)-3-(4-((trifluoromethyl)sulfonyl)phenyl) imidazolidine-2,4-dione] | 500 to 2000
CC1(C)C(=O)N(c2ccc(C3(C(F)(F)F)CC3)cc2)C(=O)N1Cc1ccnc(NCC2(C#N)CC2)c1 [Compound 160, 1-(((4-((5,5-dimethyl-2,4-dioxo-3-(4-(1-(trifluoromethyl)cyclopropyl)phenyl)imidazolidin-1-yl)methyl)pyridin-2-yl)amino)methyl)cyclopropane-1-carbonitrile] | ≤ 500
Cn1ccc(CNc2cc(CN3C(=O)N(c4ccc5c(c4)N(S(C)(=O)=O)CC5(C)C)C(=O)C3(C)C)ccn2)n1 [Compound 246, 3-(3,3-dimethyl-1-(methylsulfonyl)indolin-6-yl)-5,5-dimethyl-1-((2-(((1-methyl-1H-pyrazol-3-yl)methyl)amino)pyridin-4-yl)methyl)imidazolidine-2,4-dione] | ≤ 500
CC1(C)C(=O)N(c2ccc(S(=O)(=O)C(F)(F)F)cc2)C(=O)N1Cc1ccnc(NC2CC2)c1 [Compound 356, 1-((2-(cyclopropylamino)pyridin-4-yl)methyl)-5,5-dimethyl-3-(4-((trifluoromethyl)sulfonyl)phenyl)imidazolidine-2,4-dione] | ≤ 500
CC1(C)C(=O)N(c2ccc(C3(C(F)(F)F)CC3)cc2)C(=O)N1Cc1ccnc(NCc2ncc[nH]2)c1 [Compound 173, 1-((2-(((1H-imidazol-2-yl)methyl)amino)pyridin-4-yl)methyl)-5,5-dimethyl-3-(4-(1-(trifluoromethyl)cyclopropyl)phenyl) imidazolidine-2,4-dione] | ≤ 500
CC(C)Cc1cn(S(C)(=O)=O)c2cc(N3C(=O)N(Cc4ccnc5c4CC(=O)N5)C(C)(C)C3=O)ccc12 [Compound 50, 3-(3-isobutyl-1-(methylsulfonyl)-1H-indol-6-yl)-5,5-dimethyl-1-((2-oxo-2,3-dihydro-1H-pyrrolo[2,3-b]pyridin-4-yl)methyl)imidazolidine-2,4-dione] | ≤ 500
C[C@@H](CC#N)Nc1cc(CN2C(=O)N(c3ccc4c(c3)N(S(C)(=O)=O)CC4(C)C)C(=O)C2(C)C)ccn1 [Compound 215, (S)-3-((4-((3-(3,3-dimethyl-1-(methylsulfonyl)indolin-6-yl)-5,5-dimethyl-2,4-dioxoimidazolidin-1-yl)methyl)pyridin-2-yl)amino)butanenitrile] | ≤ 500
CC1(C)C(=O)N(c2ccc3c(c2)N(S(C)(=O)=O)CC32CC2)C(=O)N1Cc1ccnc2c1CC(=O)N2 [Compound 45, 5,5-dimethyl-3-(1′-(methylsulfonyl)spiro[cyclopropane-1,3′-indolin]-6′-yl)-1-((2-oxo-2,3-dihydro-1H-pyrrolo[2,3-b]pyridin-4-yl)methyl)imidazolidine-2,4-dione] | ≤ 500
CC1(C)C(=O)N(c2ccc(C3(C(F)(F)F)CC3)cc2)C(=O)N1Cc1ccnc(NC2CS(=O)(=O)C2)c1 [Compound 141, 1-((2-((1,1-dioxidothietan-3-yl)amino)pyridin-4-yl)methyl)-5,5-dimethyl-3-(4-(1-(trifluoromethyl)cyclopropyl)phenyl) imidazolidine-2,4-dione] | 500 to 2000
CN1CC2(CCC2)c2ccc(N3C(=O)N(Cc4ccnc(NC5CCOCC5)c4)C(C)(C)C3=O)cc21 [Compound 214, 5,5-dimethyl-3-(1′-methylspiro[cyclobutane-1,3′-indolin]-6′-yl)-1-((2-((tetrahydro-2H-pyran-4-yl)amino)pyridin-4-yl)methyl)imidazolidine-2,4-dione] | ≤ 500
CC1(C)C(=O)N(c2ccc(C3(C(F)(F)F)CC3)cc2)C(=O)N1Cc1ccnc(NCc2ccncn2)c1 [Compound 181, 5,5-dimethyl-1-((2-((pyrimidin-4-ylmethyl)amino)pyridin-4-yl)methyl)-3-(4-(1-(trifluoromethyl)cyclopropyl)phenyl) imidazolidine-2,4-dione] | ≤ 500
CC1(C)C(=O)N(c2ccc(C#N)c(C(F)(F)F)c2)C(=O)N1Cc1ccnc2c1CC(=O)N2 [Compound 76, 4-(4,4-dimethyl-2,5-dioxo-3-((2-oxo-2,3-dihydro-1H-pyrrolo[2,3-b]pyridin-4-yl)methyl)imidazolidin-1-yl)-2-(trifluoromethyl)benzonitrile] | 2000 to 10000
CC1Cc2c(CN3C(=O)N(c4ccc(C5(C(F)(F)F)CC5)cc4)C(=O)C3(C)C)ccnc2N1 (stereo not drawn) [Compound 34, 5,5-dimethyl-1-((2-methyl-2,3-dihydro-1H-pyrrolo[2,3-b]pyridin-4-yl)methyl)-3-(4-(1-(trifluoromethyl)cyclopropyl)phenyl) imidazolidine-2,4-dione] | ≤ 500
CC1(C)C(=O)N(c2ccc3c(c2)N(S(C)(=O)=O)CC32CCC2)C(=O)N1Cc1ccnc(NCc2cccnc2)c1 [Compound 244, 5,5-dimethyl-3-(1′-(methylsulfonyl)spiro[cyclobutane-1,3′-indolin]-6′-yl)-1-((2-((pyridin-3-ylmethyl)amino)pyridin-4-yl)methyl)imidazolidine-2,4-dione] | ≤ 500
COCC1(Nc2cc(CN3C(=O)N(c4ccc(C5(C(F)(F)F)CC5)cc4)C(=O)C3(C)C)ccn2)CC1 [Compound 159, 1-((2-((1-(methoxymethyl)cyclopropyl)amino)pyridin-4-yl)methyl)-5,5-dimethyl-3-(4-(1-(trifluoromethyl)cyclopropyl)phenyl) imidazolidine-2,4-dione] | ≤ 500
CN1CC(Nc2cc(CN3C(=O)N(c4ccc(S(=O)(=O)C(F)(F)F)cc4)C(=O)C3(C)C)ccn2)CCC1=O (stereo not drawn) [Compound 330, 5,5-dimethyl-1-((2-((1-methyl-6-oxopiperidin-3-yl)amino)pyridin-4-yl)methyl)-3-(4-((trifluoromethyl)sulfonyl)phenyl) imidazolidine-2,4-dione] | 500 to 2000
